Where two headings read alike, the source gives them in different places.
Key:
[1] = Microsomal stability assay; type: in vitro ADME, rat; conditions: 10 μM, rat liver microsomes, 37 °C; 41 n = 3, 7-EC n = 1
[2] = target: T1, human PPARγ ligand-binding domain (Gal4 chimera) (Homo sapiens, UniProt P37231); assay: Gal4 hybrid reporter gene assay, PPARγ; type: cell-based; set-up: Emax: dose or concentration left out as unconfirmed; conditions: for Emax: read-out: max. rel. act. PPARγ
T1 construct: coding for the hinge region and LBD of the canonical isoform of the respective nuclear receptor; expressed in transfected cells; host or cells: HEK293T
T1 sequence (P37231 238-503 limits assumed): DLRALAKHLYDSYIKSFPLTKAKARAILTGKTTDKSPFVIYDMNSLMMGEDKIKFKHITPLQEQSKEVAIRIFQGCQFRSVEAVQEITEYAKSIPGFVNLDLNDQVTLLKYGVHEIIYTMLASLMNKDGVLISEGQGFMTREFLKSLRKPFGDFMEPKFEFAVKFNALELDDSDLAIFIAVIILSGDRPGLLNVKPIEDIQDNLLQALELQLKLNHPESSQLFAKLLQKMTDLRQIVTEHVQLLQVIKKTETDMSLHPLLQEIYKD

[3] = target: T2, human PPARδ ligand-binding domain (Gal4 chimera) (Homo sapiens, UniProt Q03181); assay: Gal4 hybrid reporter gene assay, PPARδ; type: cell-based; set-up: Emax: dose or concentration left out as unconfirmed; conditions: for Emax: read-out: max. rel. act. PPARδ
T2 construct: coding for the hinge region and LBD of the canonical isoform of the respective nuclear receptor; expressed in transfected cells; host or cells: HEK293T
T2 sequence (Q03181 211-439 limits assumed): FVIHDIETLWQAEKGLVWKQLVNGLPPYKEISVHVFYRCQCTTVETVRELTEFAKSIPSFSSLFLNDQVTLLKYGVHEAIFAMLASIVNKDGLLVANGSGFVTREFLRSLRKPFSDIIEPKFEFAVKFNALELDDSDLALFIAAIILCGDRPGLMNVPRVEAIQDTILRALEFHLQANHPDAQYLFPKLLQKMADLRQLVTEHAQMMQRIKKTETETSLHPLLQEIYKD

[4] = target: T3, human PPARα ligand-binding domain (Gal4 chimera) (Homo sapiens, UniProt Q07869); assay: Gal4 hybrid reporter gene assay, PPARα; type: cell-based; set-up: Emax: dose or concentration left out as unconfirmed; conditions: for EC50: EC50 [μM] PPARα
T3 construct: coding for the hinge region and LBD of the canonical isoform of the respective nuclear receptor; expressed in transfected cells; host or cells: HEK293T
T3 sequence (Q07869 239-466 limits assumed): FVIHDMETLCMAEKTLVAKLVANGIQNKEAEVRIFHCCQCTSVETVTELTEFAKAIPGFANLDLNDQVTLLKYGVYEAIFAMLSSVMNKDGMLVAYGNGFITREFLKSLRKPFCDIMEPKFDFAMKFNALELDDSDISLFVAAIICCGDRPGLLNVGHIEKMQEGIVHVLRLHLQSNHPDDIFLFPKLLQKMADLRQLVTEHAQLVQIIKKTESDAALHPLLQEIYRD

[5] = target: T4, human FXR:retinoid X receptor (RXR) heterodimer (Homo sapiens, UniProt Q96RI1); assay: Full-length FXR reporter gene assay (BSEP response element) in HeLa cells; type: cell-based; set-up: Emax: dose or concentration left out as unconfirmed; conditions: HeLa; for Emax: read-out: max. rel. act. FXR; for EC50: read-out: EC50 [μM] FXR
T4 construct: pcDNA3-hFXR[32] and pSG5-hRXR[33] served for receptor overexpression in the full-length FXR assay; expressed in transfected cells; host or cells: HeLa
T4 sequence (P19793 whole entry): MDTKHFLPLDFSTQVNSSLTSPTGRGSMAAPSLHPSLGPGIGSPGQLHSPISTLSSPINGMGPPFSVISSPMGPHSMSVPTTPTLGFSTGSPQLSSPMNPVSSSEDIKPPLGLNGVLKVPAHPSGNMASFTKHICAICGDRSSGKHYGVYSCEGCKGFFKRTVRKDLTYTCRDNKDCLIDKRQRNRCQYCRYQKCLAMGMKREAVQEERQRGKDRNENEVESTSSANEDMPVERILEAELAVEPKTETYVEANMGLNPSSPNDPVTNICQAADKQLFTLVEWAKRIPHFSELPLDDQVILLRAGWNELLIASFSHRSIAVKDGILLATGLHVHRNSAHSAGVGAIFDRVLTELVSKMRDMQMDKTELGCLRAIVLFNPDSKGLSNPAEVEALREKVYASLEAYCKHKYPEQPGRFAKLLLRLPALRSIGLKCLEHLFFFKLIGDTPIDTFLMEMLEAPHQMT
T4 sequence (Q96RI1 whole entry): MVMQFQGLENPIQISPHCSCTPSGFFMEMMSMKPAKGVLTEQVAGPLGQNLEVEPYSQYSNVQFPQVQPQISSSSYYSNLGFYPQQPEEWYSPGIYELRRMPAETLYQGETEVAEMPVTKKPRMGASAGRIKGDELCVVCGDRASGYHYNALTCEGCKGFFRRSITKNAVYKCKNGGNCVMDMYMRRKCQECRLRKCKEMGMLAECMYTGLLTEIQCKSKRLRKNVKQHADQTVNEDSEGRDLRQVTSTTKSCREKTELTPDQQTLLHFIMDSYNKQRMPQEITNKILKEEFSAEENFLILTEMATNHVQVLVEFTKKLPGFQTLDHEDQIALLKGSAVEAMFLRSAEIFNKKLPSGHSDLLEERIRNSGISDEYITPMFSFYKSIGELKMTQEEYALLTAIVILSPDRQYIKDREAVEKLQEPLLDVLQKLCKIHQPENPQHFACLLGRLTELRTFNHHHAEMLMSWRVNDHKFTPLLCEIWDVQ

[6] = HEK293T, mean ± SEM, n = 3, read-out: EC50 [μM] PPARγ
[7] = HEK293T, mean ± SEM, n = 3, read-out: EC50 [μM] PPARδ

SMILES | Emax [2] [%] | Emax [3] [%] | EC50 ([4]; HEK293T, mean ± SEM, n = 3) [µM] | Emax [5] [%] | EC50 ([5]; mean ± SEM, n = 3) [µM] | EC50 [2, 6] [µM] | EC50 [3, 7] [µM] | also measured
CCOc1ccc2ccc(=O)oc2c1 [7-EC, 7-Ethoxycoumarin, reference compound] |  |  |  |  |  |  |  | percent of remaining compound, 15 min [1]: 87%; percent of remaining compound, 30 min [1]: 75%; percent of remaining compound, 60 min [1]: 55%
O=C(O)CCc1cccc(NC(=O)c2ccccc2NC(=O)c2ccc(-c3cnoc3)cc2)c1 [compound 36] |  |  |  |  |  |  |  | EC50 [μM] PPARγ ([2]; HEK293T, mean ± SEM, n = 3): Unstable; EC50 [μM] PPARδ ([3]; HEK293T, mean ± SEM, n = 3): Unstable; EC50 [μM] PPARα ([4]; HEK293T, mean ± SEM, n = 3): Unstable; EC50 [μM] FXR ([5]; mean ± SEM, n = 3): Unstable
O=C(O)CCc1cccc(NC(=O)c2ccccc2NC(=O)c2ccc(-c3cocn3)cc2)c1 [compound 37] | 15 | 52 | 20 ± 1 | 41 | 6.9 ± 0.3 |  |  | EC50 [2]: 6 ± 1 µM; EC50 ([3]; EC50 [μM] PPARδ, HEK293T, mean ± SEM, n = 3): 12 ± 1 µM; Emax ([4]; read-out: max. rel. act. PPARα): 36%
O=C(O)CCc1cccc(NC(=O)c2ccccc2NC(=O)c2ccc(-c3cnco3)cc2)c1 [compound 38] | 16 | 32 | > 30 | 53 | 15 ± 4 | 5.3 ± 0.2 | 12 ± 1 | 
O=C(O)CCc1cccc(NC(=O)c2ccccc2NC(=O)c2ccc(-n3ccnn3)cc2)c1 [compound 39] |  |  | > 10 |  | > 10 | > 30 | > 10 | 
COc1ccc(C(=O)Nc2cccc(NCC(=O)O)c2)c(NC(=O)c2ccc(-c3ccoc3)cc2)c1 [compound 40, (3-[2-{4-(3-Furyl)benzamido}-4-methoxybenzamido]phenyl)glycine] | 9 | 54 | > 30 | 43 | 0.29 ± 0.01 | 7.7 ± 0.5 | 1.6 ± 0.1 | 

From PMC9814779, “A triple farnesoid X receptor and peroxisome proliferator-activated receptor α/δ activator reverses hepatic fibrosis in diet-induced NASH in mice” (Communications Chemistry, 2020)
